“Also recorded” adds a separate entry of the source.
Tests used:
MuSCs = experiment: EdU incorporation proliferation assay; format: cell-based, mouse; details: PGE2 10 ng/ml for 24 h, EdU 1 hr
Description: Proliferation assays: To assay proliferation, we used three different assays (hemocytometer, VisionBlue, and EdU). For each, we seeded MuSCs on flat hydrogels (hemocytometer and VisionBlue) or collagen-coated plates (EdU assay) at a density of 500 cells per cm^2 surface area. For hemocytometer cell number count, we collected cells at indicated timepoints by incubation with 0.5% trypsin in PBS for 5 min at 37° C. and quantified them using a hemocytometer at least 3 times. Additionally, we used the VisionBlue Quick Cell Viability Fluorometric Assay Kit (BioVision, catalog #K303) as a readout for cell growth in culture. Briefly, we incubated MuSCs with 10% VisionBlue in culture medium for 3 h, and measured fluorescence intensity on a fluorescence plate reader (Infinite M1000 PRO, Tecan) at Ex=530-570 nm, Em=590-620 nm. […] We quantified EdU positive cells using the MetaMorph Image Analysis software (Molecular Devices). Data analyses were blinded, where researchers performing cell scoring were unaware of the treatment condition given to sample groups analyzed.
To assay proliferation, we used three different assays (hemocytometer, VisionBlue, and EdU). […] For hemocytometer cell number count, we collected cells at indicated timepoints by incubation with 0.5% trypsin in PBS for 5 min at 37° C. and quantified them using a hemocytometer at least 3 times. […]

TA muscles = experiment: In vivo muscle force after downhill treadmill exercise, aged mice, TA; set-up: species or system mouse; details: aged (18-22 mo) mice, 10 μg PGE2 after each run in week 1, force at week 5
Description: FIGS. 5Q and 5R show twitch force and tetanic force data, respectively, from a separate experiment in which mice were treated with PGE2 or vehicle only. Importantly, we observed an increase in isometric force in aged (18-22 mo) mice injected with PGE2 and subjected to downhill treadmill exercise. Briefly, aged mice ran daily (at 20 degrees downhill and 14 meter/min maximum speed for 10 min) for 5 days and rested on days 6 and 7. This eccentric exercise regime leads to MuSC expansion due to a cycle of muscle degeneration and regeneration. […] During week 2, mice were subjected to 5 days treadmill run only.

For CCCCC[C@H](O)/C=C/[C@H]1[C@H](O)CC(=O)[C@@H]1C/C=C\CCCC(=O)O [PGE2, prostaglandin E2], the “cell division assayed by EdU incorporation” value (MuSCs) was “increased cell division; also recorded: increase in cell division” and the “force (twitch and tetanic) of TA muscles” value (TA muscles) was “significant increase in force”.
